The values below come from ChEMBL document CHEMBL5724696, “Autophagy assay results for EUbOPEN Chemogenomics Library” (2024).

Assay [1] deals with U2OS. The assay is described as follows: (§1) Here: values are normalized to the positive (DMSO; basel flux = defined as 100% suppression) and negative (250nM Torin1; mTOR inhibitor; maximal inducer of autophagy defined as 0% suppression) control compounds and represented as % of ER-phagy suppression. […] The impact of autophagy induction on cells is complex and depends on the affected target. […] Of note, treatment concentrations may be sub-optimal for specific compounds, leading to false negative annotations. The following applies: Compound Concentration 1 uM, Culturing Media DMEM, 1 % Penicillin/Streptomycin, 10% Fetal bovin serum Add-On: blasticidin, Screening Media Control DMEM, 10% Fetal bovin serum Add-On: 1 µg/ml Doxycyclin, Screening Media Samples DMEM, 10% Fetal bovin serum Add-On: 1 µg/ml Doxycyclin 250nM Torin1. Type of assay: functional, Homo sapiens.

For assay [2], the system named is U2OS. The description is as §1. Type of assay: functional, Homo sapiens. The following applies: Compound Concentration 1 uM, Culturing Media DMEM, 1 % Penicillin/Streptomycin, 10% Fetal bovin serum Add-On: blasticidin, Screening Media Control DMEM, 10% Fetal bovin serum Add-On: 1 µg/ml Doxycyclin, Screening Media Samples DMEM, 10% Fetal bovin serum Add-On: 1 µg/ml Doxycyclin 250nM Torin1. The source holds these as a separate data set.

Turning to `CN(C)C/C=C/C(=O)Nc1cc2c(Nc3ccc(F)c(Cl)c3)ncnc2cc1O[C@H]1CCOC1` [AFATINIB], the ER-phagy suppression is reported as 20.6411% with U2OS [1] (Timepoint 12 hours); 25.6226% with U2OS [1] (Timepoint 24 hours); 22.4767% with U2OS [1] (Timepoint 36 hours); 26.9133% with U2OS [1] (Timepoint 60 hours); -20.9199% in the assay with U2OS [2] (Timepoint 12 hours); -7.924% with U2OS [2] (Timepoint 24 hours). The values for the ER-phagy suppression with U2OS [2] (Timepoint 36 hours) and with U2OS [2] (Timepoint 54 hours) were -3.193% and 3.819%, respectively.
For the molecule `CCn1c(=O)c(-c2ccc(Cl)cc2Cl)cc2cnc(Nc3ccc(N4CCNCC4)c(F)c3)nc21`, the ER-phagy suppression in the assay with U2OS [1] (Timepoint 12 hours) is reported as 36.4408%; in the assay on U2OS [1] (Timepoint 24 hours), 60.1254%; in the assay on U2OS [1] (Timepoint 36 hours) it was 62.8115%; in the assay with U2OS [1] (Timepoint 60 hours), 76.8114%; in the assay on U2OS [2] (Timepoint 12 hours) it was -49.4743%; in the assay on U2OS [2] (Timepoint 24 hours) it was -41.9787%. In addition, the ER-phagy suppression is reported as -21.5083% in the assay on U2OS [2] (Timepoint 36 hours) and -6.286% with U2OS [2] (Timepoint 54 hours).
Turning to `CC1=C(C(=O)Nc2cc3cn[nH]c3cc2F)C(c2ccc(C(F)(F)F)cc2)CC(=O)N1` (stereo unspecified), the ER-phagy suppression in the assay with U2OS [1] (Timepoint 12 hours) is given as -7.959%; in the assay on U2OS [1] (Timepoint 24 hours), -2.49%; in the assay with U2OS [1] (Timepoint 36 hours), 15.1812%; in the assay on U2OS [1] (Timepoint 60 hours) it was 22.9185%; in the assay with U2OS [2] (Timepoint 12 hours), -59.3717%; in the assay with U2OS [2] (Timepoint 24 hours), -37.062%. In addition, the ER-phagy suppression amounted to 5.409% in the assay on U2OS [2] (Timepoint 36 hours) and 47.7199% in the assay with U2OS [2] (Timepoint 54 hours).
With `NC(=O)c1ccc(N(C(N)=O)c2c(F)cccc2F)nc1-c1ccc(F)cc1F` [VX-702], the ER-phagy suppression in the assay with U2OS [1] (Timepoint 12 hours) was 31.8026%; in the assay on U2OS [1] (Timepoint 24 hours) it was 34.6886%; in the assay on U2OS [1] (Timepoint 36 hours), 33.7769%; in the assay on U2OS [1] (Timepoint 60 hours) it was 30.7144%; with U2OS [2] (Timepoint 12 hours) it was 0.2881%; with U2OS [2] (Timepoint 24 hours) it was -13.3426%. Further, the ER-phagy suppression in the assay on U2OS [2] (Timepoint 36 hours) is reported as -11.8024%; in the assay with U2OS [2] (Timepoint 54 hours) it was 0.1703%.
For the molecule `CN(C)[C@H]1C[C@H](n2cnc(-c3ccc(F)cn3)c2-c2ccnc3[nH]ccc23)C1`, the ER-phagy suppression in the assay on U2OS [1] (Timepoint 12 hours) is 23.5482%; in the assay on U2OS [1] (Timepoint 24 hours), 2.98%; in the assay with U2OS [1] (Timepoint 36 hours), 12.4603%; in the assay on U2OS [1] (Timepoint 60 hours), 17.3235%; in the assay on U2OS [2] (Timepoint 12 hours), 22.3816%; in the assay with U2OS [2] (Timepoint 24 hours), 21.0505%. Further, the figures for the ER-phagy suppression in the assay on U2OS [2] (Timepoint 36 hours) and in the assay on U2OS [2] (Timepoint 54 hours) were 31.8624% and 38.0418%, respectively.
For the molecule `CN(C)CCCn1cc(C2=C(c3c[nH]c4ccccc34)C(=O)NC2=O)c2ccccc21` [GF-109203], the ER-phagy suppression worked out at 176.072% in the assay with U2OS [1] (Timepoint 12 hours); 134.347% in the assay with U2OS [1] (Timepoint 24 hours); 114.591% with U2OS [1] (Timepoint 36 hours); 104.135% in the assay on U2OS [1] (Timepoint 60 hours); 134.318% in the assay on U2OS [2] (Timepoint 12 hours); 101.39% with U2OS [2] (Timepoint 24 hours). The ER-phagy suppression with U2OS [2] (Timepoint 36 hours) stood at 90.0252%; in the assay with U2OS [2] (Timepoint 54 hours), 89.0171%.
For the molecule `Fc1ccc(-c2ncn(Cc3nc[nH]n3)c2-c2ccnc3[nH]ccc23)cc1`, the ER-phagy suppression with U2OS [1] (Timepoint 12 hours) is given as 1.163%; with U2OS [1] (Timepoint 24 hours), 2.249%; with U2OS [1] (Timepoint 36 hours), 8.909%; with U2OS [1] (Timepoint 60 hours) it was 19.5799%; in the assay with U2OS [2] (Timepoint 12 hours) it was -8.055%; in the assay on U2OS [2] (Timepoint 24 hours) it was -11.2707%. In addition, the ER-phagy suppression in the assay with U2OS [2] (Timepoint 36 hours) was -18.4467%; with U2OS [2] (Timepoint 54 hours), -16.7104%.
For `Cc1c(C(=O)Nc2ccc(Oc3ccnc4[nH]cc(-c5ccccc5)c34)c(F)c2)c(=O)n(-c2ccc(F)cc2)n1C`, the ER-phagy suppression was 11.6236% with U2OS [1] (Timepoint 12 hours); -15.4691% with U2OS [1] (Timepoint 24 hours); -3.07% in the assay on U2OS [1] (Timepoint 36 hours); -1.46% in the assay on U2OS [1] (Timepoint 60 hours); 3.929% with U2OS [2] (Timepoint 12 hours); -12.4432% with U2OS [2] (Timepoint 24 hours). The ER-phagy suppression is -17.5101% with U2OS [2] (Timepoint 36 hours) and -17.0737% in the assay with U2OS [2] (Timepoint 54 hours).
With `Cc1ccc(N(C)c2cc(N(C)C3CC3)n3ncc(C#N)c3n2)cc1NC(=O)C1CC1`, the ER-phagy suppression with U2OS [1] (Timepoint 12 hours) stood at 27.2035%; in the assay with U2OS [1] (Timepoint 24 hours) it was 42.1045%; in the assay on U2OS [1] (Timepoint 36 hours) it was 58.091%; in the assay on U2OS [1] (Timepoint 60 hours), 60.0735%; in the assay on U2OS [2] (Timepoint 12 hours), 38.742%; with U2OS [2] (Timepoint 24 hours), 47.4692%. Moreover, the figures for the ER-phagy suppression in the assay with U2OS [2] (Timepoint 36 hours) and in the assay on U2OS [2] (Timepoint 54 hours) were 65.8045% and 75.1314%, respectively.
As for `COc1cc(Nc2nc(C)cc(-c3cnn4nc(OC)ccc34)n2)cc(C(F)(F)F)c1`, the ER-phagy suppression with U2OS [1] (Timepoint 12 hours) was -18.8933%; in the assay on U2OS [1] (Timepoint 24 hours), -32.8701%; in the assay on U2OS [1] (Timepoint 36 hours) it was -15.1622%; in the assay with U2OS [1] (Timepoint 60 hours), -1.233%; in the assay with U2OS [2] (Timepoint 12 hours), -17.1977%; with U2OS [2] (Timepoint 24 hours), -30.7%. Further, the ER-phagy suppression in the assay on U2OS [2] (Timepoint 36 hours) is recorded as -31.3882%; in the assay on U2OS [2] (Timepoint 54 hours) it was -33.2663%.
Regarding `C[C@@H]1CN(CC(=O)Nc2ccc3c(c2)Cc2cccc(-c4cc(=O)cc(N5CCOCC5)o4)c2S3)C[C@H](C)O1`, the ER-phagy suppression is recorded as 56.3007% in the assay on U2OS [1] (Timepoint 12 hours); 45.431% in the assay on U2OS [1] (Timepoint 24 hours); 40.5334% in the assay with U2OS [1] (Timepoint 36 hours); 35.1087% in the assay on U2OS [1] (Timepoint 60 hours); 73.6735% in the assay on U2OS [2] (Timepoint 12 hours); 67.8887% with U2OS [2] (Timepoint 24 hours). Further, the ER-phagy suppression is on record as 67.4998% in the assay on U2OS [2] (Timepoint 36 hours) and 71.8155% with U2OS [2] (Timepoint 54 hours).
As for `C[C@@H]1CN(c2cc(-c3n[nH]c4ccc(OC5(C)CC5)cc34)ncn2)C[C@H](C)O1` [MLi-2], the ER-phagy suppression in the assay on U2OS [1] (Timepoint 12 hours) is given as 9.792%; in the assay on U2OS [1] (Timepoint 24 hours), 2.978%; in the assay with U2OS [1] (Timepoint 36 hours) it was -16.0797%; in the assay on U2OS [1] (Timepoint 60 hours), -15.9794%; in the assay with U2OS [2] (Timepoint 12 hours), 2.807%; with U2OS [2] (Timepoint 24 hours), -15.8401%. For the same molecule, the ER-phagy suppression with U2OS [2] (Timepoint 36 hours) is listed as -22.331%; in the assay with U2OS [2] (Timepoint 54 hours), -20.0591%.
As to `O=c1cc(-c2cccc3c2Sc2ccccc2S3)oc(N2CCOCC2)c1` [KU-55933], the ER-phagy suppression in the assay on U2OS [1] (Timepoint 12 hours) is 55.4841%; with U2OS [1] (Timepoint 24 hours) it was 58.138%; in the assay on U2OS [1] (Timepoint 36 hours) it was 50.8459%; in the assay with U2OS [1] (Timepoint 60 hours) it was 57.1444%; in the assay on U2OS [2] (Timepoint 12 hours) it was 6.867%; in the assay with U2OS [2] (Timepoint 24 hours), -4.052%. In addition, the ER-phagy suppression is on record as -12.4961% with U2OS [2] (Timepoint 36 hours) and -6.9587% with U2OS [2] (Timepoint 54 hours).
Take `CC1=C(C#N)[C@@H](c2ccc3[nH]nc(C)c3c2)C(C#N)=C(c2ccc(Cl)cc2)N1` [BAY-827]: the ER-phagy suppression in the assay on U2OS [1] (Timepoint 12 hours) is reported as -21.2779%; in the assay with U2OS [1] (Timepoint 24 hours), -26.9283%; in the assay on U2OS [1] (Timepoint 36 hours) it was -30.4241%; in the assay on U2OS [1] (Timepoint 60 hours), -34.9366%; in the assay with U2OS [2] (Timepoint 12 hours), -1.516%; in the assay on U2OS [2] (Timepoint 24 hours) it was -21.7023%. In addition, the results for the ER-phagy suppression in the assay with U2OS [2] (Timepoint 36 hours) and with U2OS [2] (Timepoint 54 hours) were -24.9956% and -14.7052%, respectively.
On to `CCc1cncnc1N1CCN(Cc2nc3cc(C(F)(F)F)ccc3[nH]2)CC1`, for which the ER-phagy suppression in the assay with U2OS [1] (Timepoint 12 hours) is reported as -3.169%; in the assay on U2OS [1] (Timepoint 24 hours), -14.0511%; in the assay on U2OS [1] (Timepoint 36 hours), -20.9455%; in the assay with U2OS [1] (Timepoint 60 hours) it was -35.5971%; in the assay on U2OS [2] (Timepoint 12 hours), -12.878%; in the assay on U2OS [2] (Timepoint 24 hours) it was -26.39%. The ER-phagy suppression was -24.8445% with U2OS [2] (Timepoint 36 hours) and -23.0115% in the assay with U2OS [2] (Timepoint 54 hours).
As for `CNc1nc(-c2ccc3c(N)n[nH]c3c2)cc(N2C[C@@H](C(=O)NC3CCCCC3)CC[C@H]2C)n1`, the ER-phagy suppression is 0.4494% in the assay on U2OS [1] (Timepoint 12 hours); -26.9041% with U2OS [1] (Timepoint 24 hours); -20.7872% in the assay on U2OS [1] (Timepoint 36 hours); -21.6855% in the assay on U2OS [1] (Timepoint 60 hours); -64.3148% in the assay with U2OS [2] (Timepoint 12 hours); -57.2907% in the assay on U2OS [2] (Timepoint 24 hours). Besides, the results for the ER-phagy suppression in the assay with U2OS [2] (Timepoint 36 hours) and in the assay with U2OS [2] (Timepoint 54 hours) were -47.7488% and -36.1372%, respectively.
Consider `CCCCN(Cc1ccccc1)C(=O)c1ccc(S(=O)(=O)Nc2ccccc2)cc1`, for which the ER-phagy suppression with U2OS [1] (Timepoint 12 hours) is -1.971%; with U2OS [1] (Timepoint 24 hours), -6.76%; in the assay with U2OS [1] (Timepoint 36 hours), -4.753%; in the assay with U2OS [1] (Timepoint 60 hours), -26.4705%; with U2OS [2] (Timepoint 12 hours) it was -7.8361%; in the assay on U2OS [2] (Timepoint 24 hours), -20.651%. Also, the values for the ER-phagy suppression with U2OS [2] (Timepoint 36 hours) and in the assay with U2OS [2] (Timepoint 54 hours) were -23.4672% and -25.4681%, respectively.
